Experimental findings from patent publication US6767741B1, “Metal binding compounds and their use in cell culture medium compositions” (Invitrogen Corporation, priority 1999, dated 2004) are described below.

Common to all, as to assay type: cell-based
One assay relates to mammalian cells. Briefly: Replacement of transferrin as iron carrier in culture media (general statements). To be noted: statement in words. The text has this:
By “compatible ingredients” is also meant those media nutrients which can be maintained together in solution and form a “stable” combination. […] Ingredients are also considered “stable” if degradation cannot be detected or when degradation occurs at a slower rate when compared to decomposition of the same ingredient in a 1×cell culture media formulation. For example, in 1×media formulations glutamine is known to degrade into pyrolidone carboxylic acid and ammonia. Glutamine in combination with divalent cations are considered “compatible ingredients” since little or no decomposition of the glutamine can be detected over time in solutions or combinations in which both glutamine and divalent cations are present. See U.S. Pat. No. 5,474,931.
The metal-binding compounds used in accordance with the present invention may be obtained commercially (e.g., from Sigma,St. Louis, Mo. and other well-known commercial sources), or may be prepared synthetically according to the guidance provided by the technical and patent publications referenced herein, the disclosures of which are incorporated herein by reference in their entireties.

Another assay concerns Sp2/0 cells. Briefly: Growth of Sp2/0 cells in transferrin-free CD Hybridoma medium with metal binding compounds. To be noted: third passage. The procedure: The ability of iron metal binding compounds to support cellular growth in the absence of transferrin was evaluated using Sp2/0 cells maintained in CD Hybridoma medium (Life Technologies, Rockville, Md.). Stock cultures containing 5 μg/mL human holo-transferrin were prepared in CD Hybridoma medium. For metal binding compound evaluation, Sp2/0 cells were established at an initial viable cell density of 0.5×10^5 cells/mL in stationary culture using 75 cm^2 tissue culture flasks in a final volume of 20 mL. All cultures were maintained at 37° C. in humidified air containing 8% CO2. To eliminate transferrin carry-over effects, cells were subcultured at the same seeding density at 4 day intervals for a total of three passages. Positive control cultures contained 5 μg/mL human holotransferrin while negative control cultures were established in the absence of either transferrin or metal binding compound. Metal binding compound stocks were prepared at 0.1M-0.2M in ddH2O and solubilized when necessary using 5N NaOH or HCl. Iron complexes were established using 0.2M metal binding compound and iron stocks mixed 1:1 (v/v) and incubated for 5-10 minutes at 22° C. All solutions containing metal binding compounds were filter sterilized using a 0.22 μm Millex-GV filter prior to addition to transferrin and serum-free media.
(§1) In most cases, metal binding compounds were evaluated either alone or in combination with ferric chloride or ferrous sulfate at 25 μM, 50 μM and 100 μM. Values in the table represent the mean percentage of control growth for duplicate cultures determined at the third passage.
(§2) When added to the medium formulation un-complexed, the metal binding compound is listed alone, when added as a complex with a transition metal, the source of the transition metal is listed with the metal binding compound.

The next assay relates to CHO cells. Briefly: Growth of CHO cells in transferrin-free CD CHO medium with metal binding compounds. To be noted: third passage. The procedure: The ability of metal binding compounds to support cellular growth in the absence of transferrin was evaluated using CHO cells maintained in CD CHO medium (Life Technologies, Rockville, Md., the formulation of which is described in WO 98/08934). Stock cultures containing 5 μg/mL human holo-transferrin were prepared in CD CHO medium. For metal binding compound evaluation, CHO cells were established in 125 mL shaker flasks at an initial viable seeding density of 1×10^5 cells/mL in a final volume of 20 mL. All cultures were maintained at 37° C. in humidified air containing 8% CO2. To eliminate transferrin carry-over effects, cells were subcultured at 4 day intervals for a total of three passages. Positive control cultures contained 5 μg/mL human holo-transferrin while negative control cultures were established in the absence of either transferrin or metal binding compound. Metal binding compound stocks were prepared at 0.1M-0.2M in ddH2O and solubilized when necessary using 5N NaOH or HCl. Iron complexes were established using 0.2M metal binding compound and iron stocks mixed 1:1 (v/v) and incubated for 5-10 minutes at 22° C. All solutions containing metal binding compounds were filter sterilized using a 0.22 μm Millex-GV filter prior to addition to transferrin and serum-free media.
as §1
The ability of various metal binding compounds to substitute for transferrin in the culture of CHO cells was determined. When added to the medium formulation un-complexed, the metal binding compound is listed alone, when added as a complex with a transition metal, the source of the transition metal is listed with the metal binding compound.

The subject of a further assay is 293 cells. Briefly: Growth of 293 cells in transferrin-free 293 SFM with metal binding compounds. The conditions noted are these: third passage. As for the experimental part: Semi-confluent adherent cultures of 293 Cells (ATCC, CRL 1573) are readily adapted to suspension culture. The cells are first detached with a solution of Trypsin-EDTA (0.05% Trypsin, 0.53 mM Na4EDTA), and then resuspended in conventional medium supplemented with 10% FBS to inhibit the trypsin. The resuspended cells are centrifuged at 200×g for five minutes. The cell pellet is resuspended in 293 SFM (available from Life Technologies, Rockville, Md.) the formulation of which is described in WO 98/08934 which is specifically incorporated herein by reference. Alternatively, the cells may be detached with Versene (Na4EDTA, 0.53 mM) and resuspended in 293 SFM.
The initial seeding density of the 293 cells after conversion to suspension culture is 1×10^6 cells/mL. The cells are shaken on a rotary shaker at 150 rpm in a 37° C. incubator equilibrated with 8% CO2-92% air. When the cells reach a density of 1.5×10^6 cells/mL they are diluted with 293 SFM to a density of 3.0×10^5 cells/mL. Because 293 cells have a tendency to aggregate, the cells may be vortexed vigorously for approximately 45 seconds to obtain a predominantly single cell suspension at the time of passaging and counting. After several passages in suspension culture, the maximum achievable density may be determined.
The ability of metal binding compounds to support cellular growth was evaluated using 293 cells maintained in 293 SFM (Life Technologies, Rockville, Md.) without transferrin or metal binding compound. Stock cultures containing 5 μg/mL human holo-transferrin were prepared in 293 SFM. For metal binding compound evaluation, 293 cells were established in 125 mL shaker flasks at an initial viable seeding density of 2×10^5 cells/mL in a final volume of 20 mL. All cultures were maintained at 37° C. in humidified air containing 8% CO2. To eliminate transferrin carry-over effects, cells were subcultured at 4 day intervals for a total of three passages. At each subculturing, cells were seeded at a density of 2×10^5 cells/mL. Positive control cultures contained 5 μg/mL human holo-transferrin while negative control cultures were established in the absence of either transferrin or metal binding compound. Metal binding compound stocks were prepared at 0.1M-0.2M in ddH2O and solubilized when necessary using 5N NaOH or HCl. Iron complexes were established using 0.2M metal binding compound and iron stocks mixed 1:1 (v/v) and incubated for 5-10 minutes at 22° C. All solutions containing metal binding compounds were filter sterilized using a 0.22 μm Millex-GV filter prior to addition to transferrin and serum-free media.
In most cases, metal binding compounds were evaluated either alone or in combination with ferric chloride or ferrous sulfate at 25 μM, 50 μM and 100 μM. When used in combination, the metal binding compounds were used in equimolar concentration with iron ions. Values in the table represent the mean percentage of control growth for duplicate cultures determined at the third passage.
as §2

[1] abbreviates: 25 μM, control = 5 μg/mL human holo-transferrin, duplicate cultures.
Setting [2] is: 50 μM, control = 5 μg/mL human holo-transferrin, duplicate cultures.
Where [3] appears, read: 100 μM, control = 5 μg/mL human holo-transferrin, duplicate cultures.
Setting [4] is: 5 μM, control = holo-transferrin.
The mark [5] stands for this setting: 10 μM, control = holo-transferrin.
Where [6] appears, read: 20 μM, control = holo-transferrin.

On to `OC[C@@H](O)[C@@H](O)[C@H](O)[C@@H](O)CO` [sorbitol], for which the “ability to replace transferrin as iron carrier in culture media” value in the assay on mammalian cells is listed as “used successfully to replace transferrin”.
In the case of `NC(=O)CCC(N)C(=O)O.[Cl][Fe]([Cl])[Cl]` (centres unmarked) [Glutamine · Ferric Chloride], the “ability to replace transferrin as iron carrier in culture media” value in the assay on mammalian cells is “can be substituted for transferrin”. Besides, the “mean percentage of control growth” value worked out at 36% in the assay on Sp2/0 cells (setting [1]), 55% with Sp2/0 cells (setting [2]) and 65% in the assay with Sp2/0 cells (setting [3]).
As to `O=C(O)CN(CC(=O)O)CC(=O)O.[Cl][Fe]([Cl])[Cl]` [Nitriloacetic Acid · Ferric Chloride], the “mean percentage of control growth” value in the assay on CHO cells (setting [1]) was found to be 127%; with CHO cells (setting [2]), 107%; in the assay with CHO cells (setting [3]), 107%; with 293 cells (setting [1]) it was 100%; in the assay on 293 cells (setting [2]) it was 118%; in the assay on 293 cells (setting [3]), 74%. The entries for the “mean percentage of control growth” value in the assay with Sp2/0 cells (setting [1]), with Sp2/0 cells (setting [2]) and in the assay with Sp2/0 cells (setting [3]) were 88%, 87% and 70%, respectively.
Regarding `CC(=O)N(O)CCCCCNC(=O)CCC(=O)N(O)CCCCCNC(=O)CCC(=O)N(O)CCCCCN.CS(=O)(=O)O.[Cl][Fe]([Cl])[Cl]` [Deferoxamine Mesylate · Ferric Chloride], the “mean percentage of control growth” value with CHO cells (setting [4]) turned out to be 50%; in the assay on CHO cells (setting [5]), 74%; in the assay with CHO cells (setting [6]), 52%; in the assay with 293 cells (setting [4]), 101%; with 293 cells (setting [5]) it was 120%; in the assay on 293 cells (setting [6]) it was 127%. Further, the “mean percentage of control growth” value in the assay on Sp2/0 cells (setting [4]), in the assay on Sp2/0 cells (setting [5]) and in the assay with Sp2/0 cells (setting [6]) was 0% throughout.
With `NC(CO)C(=O)NO.[Cl][Fe]([Cl])[Cl]` (centres unmarked) [Serine Hydroxamate · Ferric Chloride], the “mean percentage of control growth” value stood at 106% in the assay on CHO cells (setting [1]); 121% in the assay on CHO cells (setting [2]); 124% in the assay with CHO cells (setting [3]); 68% in the assay with 293 cells (setting [1]); 65% with 293 cells (setting [2]); 51% with 293 cells (setting [3]). For the same compound, the figures for the “mean percentage of control growth” value in the assay on Sp2/0 cells (setting [1]), in the assay on Sp2/0 cells (setting [2]) and with Sp2/0 cells (setting [3]) were 46%, 66% and 62%, respectively.
In the case of `[Cl][Fe]([Cl])[Cl].[O-][n+]1cccc(O)c1` [3-Hydroxypyridine-N-Oxide · Ferric Chloride], the “mean percentage of control growth” value in the assay with CHO cells (setting [1]) is 77%; in the assay with CHO cells (setting [2]), 66%; in the assay with CHO cells (setting [3]), 101%; with 293 cells (setting [1]), 77%; in the assay on 293 cells (setting [2]), 72%; in the assay on 293 cells (setting [3]), 81%. In addition, the entries for the “mean percentage of control growth” value with Sp2/0 cells (setting [1]), in the assay with Sp2/0 cells (setting [2]) and with Sp2/0 cells (setting [3]) were 55%, 54% and 57%, respectively.
On to `Cc1ncc(CO)c(C(=O)O)c1O.[Cl][Fe]([Cl])[Cl]` [4-Pyridoxic Acid · Ferric Chloride], for which the “mean percentage of control growth” value with CHO cells (setting [1]) was 55%; with CHO cells (setting [2]), 63%; in the assay with CHO cells (setting [3]) it was 100%; with 293 cells (setting [1]), 109%; with 293 cells (setting [2]) it was 85%; with 293 cells (setting [3]), 99%. The “mean percentage of control growth” value is 40% in the assay on Sp2/0 cells (setting [1]), 73% in the assay on Sp2/0 cells (setting [2]) and 76% in the assay with Sp2/0 cells (setting [3]).
For `[Cl][Fe]([Cl])[Cl]` [Ferric Chloride, reference compound], the “mean percentage of control growth” value with CHO cells (setting [1]) came to 56%; in the assay with CHO cells (setting [2]) it was 85%; in the assay with CHO cells (setting [3]), 101%; in the assay with 293 cells (setting [1]), 87%; with 293 cells (setting [2]), 91%; with 293 cells (setting [3]) it was 109%. Further, the “mean percentage of control growth” value with Sp2/0 cells (setting [1]) turned out to be 55%; in the assay with Sp2/0 cells (setting [2]) it was 73%; in the assay on Sp2/0 cells (setting [3]) it was 74%.
Turning to `O=C(O)CN(CCN(CC(=O)O)CC(=O)O)CCN(CC(=O)O)CC(=O)O.O=S(=O)([O-])[O-].[Fe+2]` [Diethylenetriamine Penta-Acetic Acid · Ferrous Sulfate], the “mean percentage of control growth” value amounted to 135% with CHO cells (setting [1]); 137% in the assay on CHO cells (setting [2]); 147% in the assay on CHO cells (setting [3]); 77% in the assay on 293 cells (setting [1]); 107% in the assay with 293 cells (setting [2]); 85% with 293 cells (setting [3]). In addition, the “mean percentage of control growth” value turned out to be 54% with Sp2/0 cells (setting [1]), 90% with Sp2/0 cells (setting [2]) and 91% in the assay with Sp2/0 cells (setting [3]).
